Laboratory results as given in publication PMC9519446, “Discovery of an Orally Active Benzoxaborole Prodrug Effective in the Treatment of Chagas Disease in Non-human Primates” (Nature microbiology, 2022).
Where “and” joins values, the source holds several entries; their conditions need not be identical. Equal entries are not always repeated.

Assay: NHP health screening: hematology (CBC)
Format: in vivo, rhesus macaques (Macaca mulatta)
Conditions: treated macaques, individual animals
Description: Under light-anesthesia/sedation, peripheral blood samples were collected from each animal prior to treatment and at 7 time points following. Blood analysis (CBC and serum chemistry assays) and physical exams to evaluate the health of the study animals were performed on each animal prior to the beginning of the study and also at three time points during the treatment protocol (see Supplementary data).

Cc1c(C(=O)N[C@H](C(=O)OCC2CCOCC2)C(C)C)ccc2c1B(O)OC2 [AN15368]
Hgb (mid-dosing bleed): 13.1 G/Dl and 14.2 G/Dl and 12.7 G/Dl and 14.6 G/Dl and 12.8 G/Dl and 13.9 G/Dl and 13.4 G/Dl and 13.5 G/Dl and 12.5 G/Dl and 12.6 G/Dl and 14 G/Dl and 13.6 G/Dl and 11.9 G/Dl and 12.9 G/Dl
Lymp (mid-dosing bleed): 3.35 10^3/µL and 4.79 10^3/µL and 3.28 10^3/µL and 5.22 10^3/µL and 2.3 10^3/µL and 2.17 10^3/µL and 3.7 10^3/µL and 4.02 10^3/µL and 5.12 10^3/µL and 2.39 10^3/µL and 2.58 10^3/µL and 3.15 10^3/µL and 3.84 10^3/µL and 2.63 10^3/µL and 2.99 10^3/µL and 4.63 10^3/µL and 1.5 10^3/µL and 2.51 10^3/µL and 3.89 10^3/µL
Mch (mid-dosing bleed): 23.8 Pgs and 22.9 Pgs and 24.1 Pgs and 24.7 Pgs and 24 Pgs and 22.6 Pgs and 24.4 Pgs and 23.9 Pgs and 22.5 Pgs and 23.1 Pgs and 23.3 Pgs and 23.7 Pgs and 22.8 Pgs and 23 Pgs and 22.7 Pgs and 23.6 Pgs
Mchc (mid-dosing bleed): 31.8 G/Dl and 33.3 G/Dl and 31.2 G/Dl and 31.7 G/Dl and 32.2 G/Dl and 32 G/Dl and 32.8 G/Dl and 32.5 G/Dl and 30.8 G/Dl and 32.1 G/Dl and 31.6 G/Dl and 31.9 G/Dl and 33.2 G/Dl and 32.3 G/Dl
Mcv (mid-dosing bleed): 74.9 fL and 68.9 fL and 77.2 fL and 78 fL and 74.5 fL and 70.8 fL and 74.6 fL and 73.8 fL and 72.9 fL and 76.6 fL and 72.2 fL and 76.4 fL and 74.7 fL and 74.4 fL and 71.4 fL and 72.1 fL and 71.2 fL
Mono (mid-dosing bleed): 0.25 10^3/µL and 0.22 10^3/µL and 0.19 10^3/µL and 0.43 10^3/µL and 0.26 10^3/µL and 0.21 10^3/µL and 0.16 10^3/µL and 0.58 10^3/µL and 0.3 10^3/µL and 0.38 10^3/µL and 0.13 10^3/µL and 0.32 10^3/µL and 0.28 10^3/µL and 0.08 10^3/µL and 0.17 10^3/µL and 0.5 10^3/µL
Mpv (mid-dosing bleed): 6.5 fL and 7.2 fL and 7.4 fL and 9.2 fL and 9.1 fL and 6.8 fL and 6.6 fL and 6.7 fL and 7.7 fL and 8.1 fL and 7.9 fL and 7.1 fL and 7.5 fL and 8.8 fL and 8.5 fL
Neut (mid-dosing bleed): 1.09 10^3/µL and 1.04 10^3/µL and 2.08 10^3/µL and 1.9 10^3/µL and 3.38 10^3/µL and 1.51 10^3/µL and 1.78 10^3/µL and 2.28 10^3/µL and 1.12 10^3/µL and 2.03 10^3/µL and 1.69 10^3/µL and 3.43 10^3/µL and 3.82 10^3/µL and 1.6 10^3/µL and 3.07 10^3/µL and 1.17 10^3/µL and 1.61 10^3/µL and 1.53 10^3/µL and 0.96 10^3/µL
Plt (mid-dosing bleed): 354 10^3/µL and 311 10^3/µL and 210 10^3/µL and 266 10^3/µL and 220 10^3/µL and 317 10^3/µL and 438 10^3/µL and 380 10^3/µL and 279 10^3/µL and 251 10^3/µL and 373 10^3/µL and 367 10^3/µL and 434 10^3/µL and 280 10^3/µL and 260 10^3/µL and 432 10^3/µL and 291 10^3/µL and 288 10^3/µL and 306 10^3/µL
Rbc (mid-dosing bleed): 5.5 10^6/µL and 6.2 10^6/µL and 5.27 10^6/µL and 5.91 10^6/µL and 5.33 10^6/µL and 6.13 10^6/µL and 5.36 10^6/µL and 5.46 10^6/µL and 5.69 10^6/µL and 5.47 10^6/µL and 5.82 10^6/µL and 5.18 10^6/µL and 5.8 10^6/µL and 5.32 10^6/µL and 6.12 10^6/µL and 5.24 10^6/µL
Rdw (mid-dosing bleed): 12.8% and 11.9% and 12.5% and 12.1% and 12.7% and 12% and 13.5% and 12.9% and 12.4% and 11.3% and 12.3%
Wbc (mid-dosing bleed): 4.78 10^3/µL and 6.15 10^3/µL and 5.63 10^3/µL and 7.65 10^3/µL and 6 10^3/µL and 3.99 10^3/µL and 5.7 10^3/µL and 7.05 10^3/µL and 6.59 10^3/µL and 4.73 10^3/µL and 4.52 10^3/µL and 7.07 10^3/µL and 8.23 10^3/µL and 4.45 10^3/µL and 6.3 10^3/µL and 3.22 10^3/µL and 4.27 10^3/µL and 5.62 10^3/µL
Baso (post-dosing bleed): 0.01 10^3/µL and 0.02 10^3/µL and 0 10^3/µL and 0.04 10^3/µL and 0.03 10^3/µL
Eos (post-dosing bleed): 0.05 10^3/µL and 0.15 10^3/µL and 0.06 10^3/µL and 0.02 10^3/µL and 0.09 10^3/µL and 0.04 10^3/µL and 0.13 10^3/µL and 0.03 10^3/µL and 0.23 10^3/µL and 0.2 10^3/µL and 0.18 10^3/µL
Hct (post-dosing bleed): 38.2% and 41.9% and 37.7% and 43% and 39.5% and 42.7% and 41% and 42.1% and 39.9% and 41.8% and 40.8% and 39.1% and 40.4% and 43.7% and 37.1% and 39.6% and 41.1%
Hgb (post-dosing bleed): 12.2 G/Dl and 14.1 G/Dl and 12 G/Dl and 13.9 G/Dl and 12.7 G/Dl and 13.1 G/Dl and 13.5 G/Dl and 12.6 G/Dl and 13.4 G/Dl and 12.1 G/Dl and 14 G/Dl and 13 G/Dl and 11.7 G/Dl and 12.9 G/Dl
Lymp (post-dosing bleed): 2.22 10^3/µL and 5.87 10^3/µL and 2.42 10^3/µL and 3.66 10^3/µL and 1.59 10^3/µL and 1.61 10^3/µL and 1.2 10^3/µL and 2.96 10^3/µL and 2.61 10^3/µL and 1.64 10^3/µL and 1.73 10^3/µL and 2.56 10^3/µL and 2.26 10^3/µL and 3.27 10^3/µL and 1.82 10^3/µL and 3.4 10^3/µL and 2.49 10^3/µL and 4.82 10^3/µL
Mch (post-dosing bleed): 24 Pgs and 23.3 Pgs and 24.2 Pgs and 24.8 Pgs and 24.1 Pgs and 22.8 Pgs and 23.6 Pgs and 22.7 Pgs and 25.1 Pgs and 23.5 Pgs and 24.3 Pgs and 23 Pgs and 23.2 Pgs and 23.4 Pgs
Mchc (post-dosing bleed): 31.9 G/Dl and 33.7 G/Dl and 31.8 G/Dl and 32.3 G/Dl and 32.2 G/Dl and 32.6 G/Dl and 32 G/Dl and 32.1 G/Dl and 31.6 G/Dl and 33.3 G/Dl and 32.8 G/Dl and 30.9 G/Dl and 32.4 G/Dl and 31.5 G/Dl and 31.4 G/Dl
Mcv (post-dosing bleed): 74.9 fL and 69.4 fL and 76 fL and 76.5 fL and 75.1 fL and 70 fL and 75.4 fL and 73.3 fL and 71.9 fL and 75.6 fL and 71 fL and 76.1 fL and 75 fL and 71.5 fL and 72 fL and 73.8 fL and 71.1 fL
Mono (post-dosing bleed): 0.18 10^3/µL and 0.32 10^3/µL and 0.21 10^3/µL and 0.33 10^3/µL and 0.22 10^3/µL and 0.38 10^3/µL and 0.54 10^3/µL and 0.11 10^3/µL and 0.26 10^3/µL and 0.1 10^3/µL and 0.28 10^3/µL and 0.15 10^3/µL and 0.34 10^3/µL
Mpv (post-dosing bleed): 6.6 fL and 7.5 fL and 7.4 fL and 10.2 fL and 8.7 fL and 6.9 fL and 7.1 fL and 7 fL and 6.7 fL and 8.3 fL and 8 fL and 6.4 fL and 8.4 fL and 7.2 fL and 6.8 fL
Neut (post-dosing bleed): 3.01 10^3/µL and 0.97 10^3/µL and 0.98 10^3/µL and 1.76 10^3/µL and 2.92 10^3/µL and 2.28 10^3/µL and 2.06 10^3/µL and 3.85 10^3/µL and 1.41 10^3/µL and 3.58 10^3/µL and 1.8 10^3/µL and 3.13 10^3/µL and 5.36 10^3/µL and 1.54 10^3/µL and 2.18 10^3/µL and 3.21 10^3/µL and 2.83 10^3/µL and 2.26 10^3/µL and 1.29 10^3/µL
Plt (post-dosing bleed): 418 10^3/µL and 319 10^3/µL and 265 10^3/µL and 238 10^3/µL and 242 10^3/µL and 283 10^3/µL and 400 10^3/µL and 311 10^3/µL and 246 10^3/µL and 364 10^3/µL and 390 10^3/µL and 478 10^3/µL and 296 10^3/µL and 291 10^3/µL and 431 10^3/µL and 302 10^3/µL and 342 10^3/µL and 357 10^3/µL
Rbc (post-dosing bleed): 5.1 10^6/µL and 6.04 10^6/µL and 4.96 10^6/µL and 5.62 10^6/µL and 5.26 10^6/µL and 6.1 10^6/µL and 5.44 10^6/µL and 5.74 10^6/µL and 5.55 10^6/µL and 5.53 10^6/µL and 5.75 10^6/µL and 5.14 10^6/µL and 5.39 10^6/µL and 6.11 10^6/µL and 5.61 10^6/µL and 5.03 10^6/µL and 5.57 10^6/µL and 5.49 10^6/µL
Rdw (post-dosing bleed): 12.7% and 12.2% and 13% and 12% and 13.5% and 11.7% and 12.6% and 12.5% and 13.3% and 11.9% and 12.9% and 12.4% and 12.3% and 11% and 12.8%
Wbc (post-dosing bleed): 5.48 10^3/µL and 7.33 10^3/µL and 3.67 10^3/µL and 5.82 10^3/µL and 4.76 10^3/µL and 4.2 10^3/µL and 3.7 10^3/µL and 7.52 10^3/µL and 4.16 10^3/µL and 5.51 10^3/µL and 3.69 10^3/µL and 6.15 10^3/µL and 8.14 10^3/µL and 5.08 10^3/µL and 4.41 10^3/µL and 7.03 10^3/µL and 5.73 10^3/µL and 4.11 10^3/µL and 6.68 10^3/µL
